Experiments:
[1] = Oral bioavailability in monkey at 4.92 umol/kg measured up to 24 hrs by LC-MS/MS analysis; format: ADME, organism-based, Macaca mulatta; conditions: rhesus monkey, in vivo, at 4.92 µmol/kg
[2] = Stability of compound in HCL at pH 1.2 assessed as remaining parent compound at 50 ug/ml after 1 hr by HPLC analysis; format: physicochemical; conditions: HCl at pH 1.2, pH 1.2, at 50 µg/mL, read-out: Stabilty
[3] = Stability of compound in PBS at pH 6.5 assessed as remaining parent compound at 50 ug/ml after 1 hr by HPLC analysis; format: physicochemical; conditions: PBS at pH 6.5, pH 6.5, at 50 µg/mL, read-out: Stabilty
[4] = Lipophilicity, logD of compound in n-octanol and phosphate buffered saline at 2 mg after 1.5 hrs by HPLC based shake flask method; format: physicochemical; conditions: for logD at 1.5 h: n-octanol/phosphate buffered saline

CC(OC(=O)O[C@@H]1C[C@H](C)CC[C@H]1C(C)C)OC(=O)[C@H]1[C@@H]2C[C@H](F)[C@@](N)(C(=O)O)[C@@H]21 (stereo partly drawn)
bioavailability [1]: 58%
remaining at 1 h, 50 ug/ml [2]: 100%
remaining at 1 h, 50 ug/ml [3]: 100%
logD at 1.5 h [4]: 2.77

CC(OC(=O)OC1CCCCC1)OC(=O)[C@@]1(N)[C@H]2[C@@H](C[C@@H]1F)[C@@H]2C(=O)O (stereo partly drawn)
remaining at 1 h, 50 ug/ml [2]: 75%
remaining at 1 h, 50 ug/ml [3]: 25%
logD ([4]; 1.5 h): Nd(Unstable)

Cc1oc(=O)oc1COC(=O)[C@@]1(N)[C@H]2[C@@H](C[C@@H]1F)[C@@H]2C(=O)O
remaining at 1 h, 50 ug/ml [2]: 95%
remaining at 1 h, 50 ug/ml [3]: 54%
logD at 1.5 h [4]: -0.95

CC(OC(=O)C(C)C)OC(=O)[C@H]1[C@@H]2C[C@H](F)[C@@](N)(C(=O)O)[C@@H]21 (stereo partly drawn)
remaining at 1 h, 50 ug/ml [2]: 100%
remaining at 1 h, 50 ug/ml [3]: 101%
logD at 1.5 h [4]: < -0.65

CC(OC(=O)OC1CCCCC1)OC(=O)[C@H]1[C@@H]2C[C@H](F)[C@@](N)(C(=O)O)[C@@H]21 (stereo partly drawn)
bioavailability [1]: 18%
remaining at 1 h, 50 ug/ml [2]: 100%
remaining at 1 h, 50 ug/ml [3]: 97%
logD at 1.5 h [4]: 0.58

CC(C)OC(=O)OC(C)OC(=O)[C@H]1[C@@H]2C[C@H](F)[C@@](N)(C(=O)O)[C@@H]21 (stereo partly drawn)
remaining at 1 h, 50 ug/ml [2]: 102%
remaining at 1 h, 50 ug/ml [3]: 101%
logD at 1.5 h [4]: 0.06

CC(OC(=O)OC12CC3CC(CC(C3)C1)C2)OC(=O)[C@H]1[C@@H]2C[C@H](F)[C@@](N)(C(=O)O)[C@@H]21 (stereo partly drawn)
remaining at 1 h, 50 ug/ml [2]: 95%
remaining at 1 h, 50 ug/ml [3]: 97%
logD at 1.5 h [4]: 1.67

CC(C)[C@@H]1CC[C@@H](C)C[C@H]1OC(=O)O[C@H](C)OC(=O)[C@H]1[C@@H]2C[C@H](F)[C@@](N)(C(=O)O)[C@@H]21
logD at 1.5 h [4]: > 1.78

CC(C)(C)C(=O)OCOC(=O)[C@H]1[C@@H]2C[C@H](F)[C@@](N)(C(=O)O)[C@@H]21
remaining at 1 h, 50 ug/ml [2]: 100%
remaining at 1 h, 50 ug/ml [3]: 99%
logD at 1.5 h [4]: -0.54

N[C@]1(C(=O)O)[C@H]2[C@@H](C[C@@H]1F)[C@@H]2C(=O)OC1OC(=O)c2ccccc21 (stereo partly drawn)
remaining at 1 h, 50 ug/ml [2]: 99%
remaining at 1 h, 50 ug/ml [3]: 97%
logD at 1.5 h [4]: -0.71

Cc1oc(=O)oc1COC(=O)[C@H]1[C@@H]2C[C@H](F)[C@@](N)(C(=O)O)[C@@H]21
remaining at 1 h, 50 ug/ml [2]: 99%
remaining at 1 h, 50 ug/ml [3]: 98%
logD at 1.5 h [4]: -1.69

Source: ChEMBL document CHEMBL4706518, “Discovery of MGS0274, an ester prodrug of a metabotropic glutamate receptor 2/3 agonist with improved oral bioavailability” (Eur J Med Chem, 2020)
